From patent US20250144067A1, “PERSONALIZED STARVATION THERAPY FOR CANCER” (Faeth Therapeutics, Inc., priority 2021, published 2025)
Where a name gives a salt, the structure may show the parent alone.

Key:
[1] = system: NCI-H292 lung cancer cells; assay: FDA drug screening, complete media vs cholesterol-free media without statin (TABLE 1); assay type: cell-based, human
[2] = system: NCI-H292 lung cancer cells; assay: FDA drug screening, complete media vs cholesterol-free media with simvastatin (TABLE 2); assay type: cell-based, human; conditions: for Cholesterol-free media + simvastatin (0.04 μM) / Complete Media: NCI-H292 cells
[3] = Complete minus Cholesterol-free, greater than 0 enhanced anti-cancer activity, about 0 neutral, below 0 antagonist
[4] = NCI-H292 cells, FDA drug library screen, cholesterol-free media without statin
[5] = NCI-H292 cells, FDA drug library screen, complete media
[6] = cholesterol-free media with simvastatin 0.04 μM, cell growth value in FDA drug screen
[7] = complete media, cell growth value in FDA drug screen
[8] = complete media minus cholesterol-free media + simvastatin, >0 enhanced anti-cancer activity, about 0 neutral, <0 antagonist
[9] = NCI-H292 cells, cholesterol-free media without statin, FDA drug library screen
[10] = NCI-H292 cells, complete media, FDA drug library screen
[11] = complete vs cholesterol-free media, >0 enhanced anti-cancer activity, about 0 neutral, <0 antagonist
[12] = cholesterol-free media with simvastatin 0.04 μM, FDA drug library screen (TABLE 2)
[13] = complete media, FDA drug library screen (TABLE 2)
[14] = complete media minus cholesterol-free media + simvastatin (0.04 μM), >0 enhanced anti-cancer activity, about 0 neutral, <0 antagonist
[15] = Complete minus Cholesterol-free, >0 enhanced anti-cancer activity, about 0 neutral, <0 antagonist
[16] = Complete minus Cholesterol-free, greater than 0 enhanced anti-cancer activity, about 0 neutral, below 0 antagonists
[17] = NCI-H292 cells in cholesterol-free media without statin
[18] = NCI-H292 cells in complete media
[19] = FDA library drug in cholesterol-free media with simvastatin 0.04 μM
[20] = FDA library drug in complete media
[21] = complete media vs cholesterol-free media + simvastatin (0.04 μM), >0 enhanced anti-cancer activity, about 0 neutral, <0 antagonist
[22] = NCI-H292 cells, cholesterol-free media without statin
[23] = complete vs cholesterol-free media, greater than 0 enhanced anti-cancer activity, about 0 neutral, below 0 antagonists
[24] = FDA drug library screen, cholesterol-free media with simvastatin 0.04 μM
[25] = FDA drug library screen, complete media
[26] = drug in cholesterol-free media with simvastatin 0.04 μM

Compound	Difference [2, 8]	Cholesterol-free [1, 9]	Complete [1, 10]	Difference [2, 21]	Cholesterol-free [1, 22]	Complete ([1]; NCI-H292 cells, complete media)	Cholesterol-free media + simvastatin (0.04 μM) [2, 24]	Complete Media [2, 25]	also measured
O=C(NCC(O)CO)c1c(I)c(C(=O)NCC(O)CO)c(I)c(N(CCO)C(=O)CO)c1I (centres unmarked) [Ioversol]	0.09	–	–	–	–	–	–	–	Difference [1, 3]: −0.10; Cholesterol-free [1, 4]: 1.162; Complete [1, 5]: 1.064; Cholesterol-free media + simvastatin (0.04 μM) [2, 6]: 1.012; Complete Media [2, 7]: 1.097
COc1cc2ncnc(Nc3ccc(F)c(Cl)c3)c2cc1NC(=O)/C=C/CN1CCCCC1 [Dacomitinib]	0.11	–	–	–	–	–	–	–	Difference [1, 3]: −0.12; Cholesterol-free [1, 4]: 0.3597; Complete [1, 5]: 0.2371; Cholesterol-free media + simvastatin (0.04 μM) [2, 6]: 0.3301; Complete Media [2, 7]: 0.437
CC(=O)N(CC(O)CN(C(C)=O)c1c(I)c(C(=O)NCC(O)CO)c(I)c(C(=O)NCC(O)CO)c1I)c1c(I)c(C(=O)NCC(O)CO)c(I)c(C(=O)NCC(O)CO)c1I (centres unmarked) [Iodixanol]	–	0.9782	1.054	–	–	–	–	–	Difference [1, 11]: 0.08; Cholesterol-free media + simvastatin (0.04 μM) [2, 12]: 1.197; Complete Media [2, 13]: 1.164; Difference [2, 14]: −0.03
Cl.NCCC[C@](N)(C(=O)O)C(F)F [L-Eflornithine (monohydrochloride)]	–	0.8255	0.8469	–	–	–	–	–	Difference [1, 15]: 0.02; Cholesterol-free media + simvastatin (0.04 μM) [2, 12]: 1.266; Complete Media [2, 13]: 1.268; Difference [2, 14]: 0.00
CCN(CC)CC(=O)Nc1c(C)cccc1C [Lidocaine]	–	–	–	−0.34	–	–	–	–	Difference [1, 16]: −0.78; Cholesterol-free [1, 17]: 1.775; Complete [1, 18]: 0.9935; Cholesterol-free media + simvastatin (0.04 μM) [2, 19]: 1.433; Complete Media [2, 20]: 1.088
CC1(C)OC[C@@H](COC(=O)CCc2ccc(OC[C@@H](O)CNCCNC(=O)N3CCOCC3)cc2)O1 [Landiolol (hydrochloride)]	–	–	–	−0.14	1.352	0.8842	1.311	–	Difference [1, 23]: −0.47
O=NN(CCCl)C(=O)NCCCl [Carmustine]	–	–	–	–	0.9766	0.7259	1.071	1.247	Difference ([1]; Complete minus Cholesterol-free, […]): −0.25; Difference ([2]; complete media minus cholesterol-free media + simvastatin, […]): 0.18
CC[C@H]1OC(=O)[C@H](C)[C@@H](O[C@H]2C[C@@](C)(OC)[C@@H](O)[C@H](C)O2)[C@H](C)[C@@H](O[C@@H]2O[C@H](C)C[C@H](N(C)C)[C@H]2O)[C@](C)(O)C[C@@H](C)[C@@H]2N[C@@H](COCCOC)O[C@H]([C@H]2C)[C@]1(C)O [Dirithromycin]	–	0.918	0.9938	−0.07	–	–	1.565	1.493	Difference [1, 11]: 0.08
CCOC(=O)[C@@H](N)Cc1ccc(-c2cc(O[C@H](c3ccc(Cl)cc3-n3ccc(C)n3)C(F)(F)F)nc(N)n2)cc1 [Telotristat ethyl]	–	–	–	−0.12	1.253	0.9282	1.11	0.9913	Difference [1, 23]: −0.32
CC[C@@H](C(N)=O)N1CCCC1=O [Levetiracetam]	–	–	–	−0.09	1.098	0.8825	1.002	0.917	Difference [1, 15]: −0.22
CC(=O)NC[C@H]1CN(c2ccc(N3CCOCC3)c(F)c2)C(=O)O1 [Linezolid]	–	0.9483	0.9881	−0.19	–	–	–	–	Difference [1, 15]: 0.04; Cholesterol-free media + simvastatin (0.04 μM) [2, 26]: 1.38; Complete Media ([2]; drug in complete media): 1.187
CCCN(CCC)CCc1cccc2c1CC(=O)N2 [Ropinirole (hydrochloride)]	0.31	–	–	–	1.101	0.7874	0.879	1.185	Difference [1, 23]: −0.31
O=c1[nH]cc(F)c(=O)[nH]1 [5-Fluorouracil]	–	–	–	−0.27	–	–	–	–	Difference [1, 3]: −0.13; Cholesterol-free [1, 4]: 0.4728; Complete [1, 5]: 0.3401; Cholesterol-free media + simvastatin (0.04 μM) [2, 19]: 0.7934; Complete Media [2, 20]: 0.5204
Cc1ccc(-c2cc(C(F)(F)F)nn2-c2ccc(S(N)(=O)=O)cc2)cc1 [Celecoxib]	0.03	–	–	–	1.362	0.9472	–	–	Difference [1, 23]: −0.42; Cholesterol-free media + simvastatin (0.04 μM) [2, 6]: 1.271; Complete Media [2, 7]: 1.302
COc1ccc(OC)c(C(O)CNC(=O)CN)c1 (centres unmarked) [Midodrine (hydrochloride)]	–	0.6607	0.8643	−0.31	–	–	–	–	Difference [1, 11]: 0.20; Cholesterol-free media + simvastatin (0.04 μM) [2, 19]: 2.06; Complete Media [2, 20]: 1.752
COC(=O)[C@H]1[C@H]2C[C@@H]3c4[nH]c5cc(OC)ccc5c4CCN3C[C@H]2C[C@@H](OC(=O)c2cc(OC)c(OC)c(OC)c2)[C@@H]1OC [Reserpine]	0.02	–	–	–	1.042	0.7591	–	–	Difference [1, 15]: −0.28; Cholesterol-free media + simvastatin (0.04 μM) [2, 6]: 0.8906; Complete Media [2, 7]: 0.9102
CCOc1ccc2nc(S(N)(=O)=O)sc2c1 [Ethoxzolamide]	–	–	–	−0.12	1.33	0.9909	1.137	1.016	Difference [1, 23]: −0.34
CCOC(=O)[C@H](CCc1ccccc1)N[C@H]1CCCN2CCC[C@@H](C(=O)O)N2C1=O [Cilazapril (monohydrate)]	–	0.8411	0.9896	−0.16	–	–	–	–	Difference [1, 11]: 0.15; Cholesterol-free media + simvastatin (0.04 μM) [2, 26]: 1.266; Complete Media ([2]; drug in complete media): 1.104
Cc1cc(-n2c(=O)[nH]c(=O)n(C)c2=O)ccc1Oc1ccc(SC(F)(F)F)cc1 [Toltrazuril]	–	0.9718	0.9012	−0.13	–	–	0.9815	0.8466	Difference [1, 15]: −0.07
COc1ccccc1N1CCN(CCCNc2cc(=O)n(C)c(=O)n2C)CC1 [Urapidil]	0.17	–	–	–	–	–	1.097	1.271	Difference [1, 16]: −0.56; Cholesterol-free [1, 17]: 1.658; Complete [1, 18]: 1.095
NNC(=O)c1ccncc1 [Isoniazid]	0.22	0.6633	1.357	–	–	–	1.455	1.672	Difference [1, 11]: 0.69
COc1cc(NS(C)(=O)=O)ccc1Nc1c2ccccc2nc2ccccc12 [Amsacrine (hydrochloride)]	–	0.2374	0.2416	−0.44	–	–	–	–	Difference [1, 15]: 0.00; Cholesterol-free media + simvastatin (0.04 μM) [2, 19]: 0.8278; Complete Media [2, 20]: 0.3873
